Measured values published in ChEMBL document CHEMBL2062464, “Allosteric modulation of seven transmembrane spanning receptors: theory, practice, and opportunities for central nervous system drug discovery” (J Med Chem, 2012).

Key:
[1] = biological target: T1, Metabotropic glutamate receptor 5 (Homo sapiens, UniProt P41594); assay: Negative allosteric modulation activity at mGlu5 receptor
Target sequence in this assay (P41594 whole entry): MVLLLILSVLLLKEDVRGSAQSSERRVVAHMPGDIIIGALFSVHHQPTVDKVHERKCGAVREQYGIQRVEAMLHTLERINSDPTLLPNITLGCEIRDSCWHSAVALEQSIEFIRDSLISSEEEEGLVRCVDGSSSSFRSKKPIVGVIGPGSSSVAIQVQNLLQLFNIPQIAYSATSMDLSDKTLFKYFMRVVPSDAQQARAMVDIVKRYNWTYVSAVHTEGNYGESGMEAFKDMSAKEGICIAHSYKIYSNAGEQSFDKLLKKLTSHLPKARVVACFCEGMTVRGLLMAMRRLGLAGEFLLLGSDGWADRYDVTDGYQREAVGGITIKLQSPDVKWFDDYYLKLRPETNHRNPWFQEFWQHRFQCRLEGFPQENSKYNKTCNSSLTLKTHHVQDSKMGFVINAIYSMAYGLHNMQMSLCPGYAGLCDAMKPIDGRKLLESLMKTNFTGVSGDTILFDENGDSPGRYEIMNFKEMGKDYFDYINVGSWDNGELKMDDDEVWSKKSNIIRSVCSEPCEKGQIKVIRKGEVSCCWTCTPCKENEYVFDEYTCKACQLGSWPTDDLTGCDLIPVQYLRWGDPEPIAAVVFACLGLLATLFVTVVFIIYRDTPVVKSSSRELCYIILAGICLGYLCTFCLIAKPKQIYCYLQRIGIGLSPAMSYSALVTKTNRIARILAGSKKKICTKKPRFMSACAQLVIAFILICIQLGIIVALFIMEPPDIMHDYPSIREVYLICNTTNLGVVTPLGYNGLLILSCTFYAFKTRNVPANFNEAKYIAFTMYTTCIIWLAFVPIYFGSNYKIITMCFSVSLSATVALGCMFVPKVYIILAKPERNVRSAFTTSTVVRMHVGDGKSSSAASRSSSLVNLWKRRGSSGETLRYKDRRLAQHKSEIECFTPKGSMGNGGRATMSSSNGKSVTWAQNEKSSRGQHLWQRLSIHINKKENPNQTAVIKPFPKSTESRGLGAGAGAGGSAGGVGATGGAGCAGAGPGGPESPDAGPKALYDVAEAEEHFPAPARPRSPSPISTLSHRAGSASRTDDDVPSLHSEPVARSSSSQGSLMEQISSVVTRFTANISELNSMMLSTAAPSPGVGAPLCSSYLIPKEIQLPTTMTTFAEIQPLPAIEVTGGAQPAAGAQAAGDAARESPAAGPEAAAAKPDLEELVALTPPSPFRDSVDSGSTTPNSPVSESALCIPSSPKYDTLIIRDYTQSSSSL

[2] = biological target: T2, Muscarinic acetylcholine receptor M5 (Homo sapiens) (UniProt P08912); assay: Positive allosteric modulation activity at muscarinic M5 receptor relative to acetylcholine
T2 sequence (whole entry): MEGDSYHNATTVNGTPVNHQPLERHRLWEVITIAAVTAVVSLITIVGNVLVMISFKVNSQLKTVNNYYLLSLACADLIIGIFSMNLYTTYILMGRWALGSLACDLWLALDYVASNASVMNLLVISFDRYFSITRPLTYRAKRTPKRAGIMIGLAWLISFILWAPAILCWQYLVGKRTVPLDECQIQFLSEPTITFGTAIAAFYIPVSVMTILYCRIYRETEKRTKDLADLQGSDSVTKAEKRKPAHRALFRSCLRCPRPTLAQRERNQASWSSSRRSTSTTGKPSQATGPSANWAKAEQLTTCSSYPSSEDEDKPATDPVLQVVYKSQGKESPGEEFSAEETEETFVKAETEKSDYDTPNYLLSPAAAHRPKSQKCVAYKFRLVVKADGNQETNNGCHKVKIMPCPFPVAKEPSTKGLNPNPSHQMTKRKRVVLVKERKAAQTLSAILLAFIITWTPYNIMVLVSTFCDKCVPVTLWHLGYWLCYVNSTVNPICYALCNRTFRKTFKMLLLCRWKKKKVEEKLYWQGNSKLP

[3] = biological target: T3, Adenosine receptor A1 (Homo sapiens) (UniProt P30542); assay: Allosteric modulation at adenosine A1 receptor assessed as receptor mediated ERK1/2 phosphorylation
T3 sequence (whole entry): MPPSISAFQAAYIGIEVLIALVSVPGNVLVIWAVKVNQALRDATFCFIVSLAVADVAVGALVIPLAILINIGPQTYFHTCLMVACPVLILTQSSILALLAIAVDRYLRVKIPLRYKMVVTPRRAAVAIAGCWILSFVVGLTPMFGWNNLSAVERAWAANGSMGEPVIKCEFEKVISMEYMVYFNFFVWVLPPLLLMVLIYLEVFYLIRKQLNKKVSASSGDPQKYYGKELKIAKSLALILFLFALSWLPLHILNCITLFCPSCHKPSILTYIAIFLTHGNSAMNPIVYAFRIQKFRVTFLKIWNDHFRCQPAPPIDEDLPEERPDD

[4] = biological target: Metabotropic glutamate receptor 8 (Homo sapiens, UniProt O00222); assay: Positive allosteric modulation activity at mGlu8 receptor
[5] = biological target: Metabotropic glutamate receptor 4 (Homo sapiens) (UniProt Q14833); assay: Positive allosteric modulation activity at mGlu4 receptor relative to glutamate
[6] = biological target: Metabotropic glutamate receptor 6 (Homo sapiens, UniProt O15303); assay: Positive allosteric modulation activity at mGlu6 receptor
[7] = biological target: T1, Metabotropic glutamate receptor 5; assay: Positive allosteric modulation activity at mGlu5 receptor
Target sequence in this assay (P41594 whole entry): as the sequence (P41594 whole entry) above

[8] = biological target: Metabotropic glutamate receptor 2 (Homo sapiens, UniProt Q14416); assay: Positive allosteric modulation activity at mGlu2 receptor
[9] = biological target: Metabotropic glutamate receptor 1 (Homo sapiens, UniProt Q13255); assay: Positive allosteric modulation activity at mGlu1 receptor
[10] = biological target: Metabotropic glutamate receptor 7 (Homo sapiens, UniProt Q14831); assay: Positive allosteric modulation activity at mGlu7 receptor
[11] = biological target: Metabotropic glutamate receptor 3 (Homo sapiens, UniProt Q14832); assay: Positive allosteric modulation activity at mGlu3 receptor
[12] = biological target: T1, Metabotropic glutamate receptor 5; assay: Positive allosteric modulation activity at mGlu5 receptor relative to glutamate
Target sequence in this assay (P41594 21-1212 limits assumed): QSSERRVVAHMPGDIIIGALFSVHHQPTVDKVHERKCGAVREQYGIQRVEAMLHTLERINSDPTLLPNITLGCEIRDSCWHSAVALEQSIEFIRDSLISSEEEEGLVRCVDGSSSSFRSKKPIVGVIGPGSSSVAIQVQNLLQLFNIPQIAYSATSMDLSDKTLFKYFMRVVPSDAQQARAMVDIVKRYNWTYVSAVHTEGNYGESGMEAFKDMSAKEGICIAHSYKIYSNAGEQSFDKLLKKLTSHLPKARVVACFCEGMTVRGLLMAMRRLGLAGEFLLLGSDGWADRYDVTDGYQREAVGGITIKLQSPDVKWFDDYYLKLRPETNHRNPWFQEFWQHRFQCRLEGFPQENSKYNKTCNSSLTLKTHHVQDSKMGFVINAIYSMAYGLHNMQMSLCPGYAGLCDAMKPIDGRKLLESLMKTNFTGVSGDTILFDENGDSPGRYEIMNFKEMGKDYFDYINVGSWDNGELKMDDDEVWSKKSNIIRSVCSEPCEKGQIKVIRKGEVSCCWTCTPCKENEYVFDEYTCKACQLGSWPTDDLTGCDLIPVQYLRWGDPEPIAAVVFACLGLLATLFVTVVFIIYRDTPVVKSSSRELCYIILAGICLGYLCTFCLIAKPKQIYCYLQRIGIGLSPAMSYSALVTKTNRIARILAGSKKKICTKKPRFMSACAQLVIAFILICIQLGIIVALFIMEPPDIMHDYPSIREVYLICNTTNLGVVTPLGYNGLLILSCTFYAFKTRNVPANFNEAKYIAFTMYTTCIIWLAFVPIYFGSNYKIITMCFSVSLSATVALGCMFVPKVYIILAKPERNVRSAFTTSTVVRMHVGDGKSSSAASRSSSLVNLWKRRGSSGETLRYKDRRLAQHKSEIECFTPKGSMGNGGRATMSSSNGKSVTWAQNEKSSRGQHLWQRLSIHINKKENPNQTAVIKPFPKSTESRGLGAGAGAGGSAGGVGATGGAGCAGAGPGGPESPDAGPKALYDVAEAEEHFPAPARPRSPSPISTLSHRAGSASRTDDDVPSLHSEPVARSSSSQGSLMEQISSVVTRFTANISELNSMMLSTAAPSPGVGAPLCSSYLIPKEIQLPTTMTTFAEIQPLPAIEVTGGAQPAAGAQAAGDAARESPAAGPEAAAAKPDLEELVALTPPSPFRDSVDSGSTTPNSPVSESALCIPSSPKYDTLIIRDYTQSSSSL

[13] = biological target: T4, Muscarinic acetylcholine receptor M1 (Homo sapiens, UniProt P11229); assay: Positive allosteric modulation activity at muscarinic M1 receptor
T4 sequence (P11229 whole entry): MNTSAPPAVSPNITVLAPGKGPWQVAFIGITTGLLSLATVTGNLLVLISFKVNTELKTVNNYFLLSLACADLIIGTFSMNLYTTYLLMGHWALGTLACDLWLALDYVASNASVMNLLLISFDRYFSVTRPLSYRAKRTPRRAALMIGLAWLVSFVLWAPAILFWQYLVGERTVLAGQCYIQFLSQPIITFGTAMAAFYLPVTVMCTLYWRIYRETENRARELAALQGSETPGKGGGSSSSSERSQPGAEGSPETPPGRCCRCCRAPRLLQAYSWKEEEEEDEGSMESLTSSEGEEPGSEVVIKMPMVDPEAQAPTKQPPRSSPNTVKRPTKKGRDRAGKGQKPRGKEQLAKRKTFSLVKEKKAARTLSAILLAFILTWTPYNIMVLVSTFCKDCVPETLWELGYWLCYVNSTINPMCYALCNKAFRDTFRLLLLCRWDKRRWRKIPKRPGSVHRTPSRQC

[14] = biological target: Muscarinic acetylcholine receptor M3 (Homo sapiens) (UniProt P20309); assay: Positive allosteric modulation activity at muscarinic M3 receptor relative to acetylcholine
[15] = biological target: T5, Muscarinic acetylcholine receptor M1 (Homo sapiens) (UniProt P11229); assay: Positive allosteric modulation activity at muscarinic M1 receptor relative to acetylcholine
T5 sequence (whole entry): T4 sequence (P11229 whole entry)

Metabotropic glutamate receptor 8, sequence (O00222 whole entry): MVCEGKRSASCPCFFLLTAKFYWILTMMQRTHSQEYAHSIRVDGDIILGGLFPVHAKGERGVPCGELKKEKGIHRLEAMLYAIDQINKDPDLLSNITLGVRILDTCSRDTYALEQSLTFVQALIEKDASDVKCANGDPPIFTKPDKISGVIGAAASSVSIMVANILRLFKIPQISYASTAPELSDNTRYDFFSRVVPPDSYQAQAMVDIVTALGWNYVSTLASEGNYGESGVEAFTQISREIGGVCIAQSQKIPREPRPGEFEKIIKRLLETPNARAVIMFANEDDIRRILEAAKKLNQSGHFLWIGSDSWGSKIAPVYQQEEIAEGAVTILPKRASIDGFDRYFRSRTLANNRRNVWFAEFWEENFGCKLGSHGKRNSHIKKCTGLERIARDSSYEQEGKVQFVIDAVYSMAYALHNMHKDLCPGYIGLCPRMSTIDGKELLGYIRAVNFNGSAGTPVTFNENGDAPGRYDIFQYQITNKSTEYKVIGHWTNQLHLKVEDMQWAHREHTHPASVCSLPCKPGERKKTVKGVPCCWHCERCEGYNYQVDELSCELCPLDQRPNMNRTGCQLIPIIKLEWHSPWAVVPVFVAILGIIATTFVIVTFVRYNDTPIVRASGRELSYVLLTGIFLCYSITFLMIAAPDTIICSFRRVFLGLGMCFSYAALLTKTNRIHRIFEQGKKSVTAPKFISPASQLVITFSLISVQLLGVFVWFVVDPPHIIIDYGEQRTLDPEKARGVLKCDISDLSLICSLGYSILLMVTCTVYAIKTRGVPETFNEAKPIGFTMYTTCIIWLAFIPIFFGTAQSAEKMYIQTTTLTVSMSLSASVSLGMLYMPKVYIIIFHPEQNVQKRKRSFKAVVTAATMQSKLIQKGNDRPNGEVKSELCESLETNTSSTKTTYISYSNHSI
Metabotropic glutamate receptor 2, sequence (Q14416 whole entry): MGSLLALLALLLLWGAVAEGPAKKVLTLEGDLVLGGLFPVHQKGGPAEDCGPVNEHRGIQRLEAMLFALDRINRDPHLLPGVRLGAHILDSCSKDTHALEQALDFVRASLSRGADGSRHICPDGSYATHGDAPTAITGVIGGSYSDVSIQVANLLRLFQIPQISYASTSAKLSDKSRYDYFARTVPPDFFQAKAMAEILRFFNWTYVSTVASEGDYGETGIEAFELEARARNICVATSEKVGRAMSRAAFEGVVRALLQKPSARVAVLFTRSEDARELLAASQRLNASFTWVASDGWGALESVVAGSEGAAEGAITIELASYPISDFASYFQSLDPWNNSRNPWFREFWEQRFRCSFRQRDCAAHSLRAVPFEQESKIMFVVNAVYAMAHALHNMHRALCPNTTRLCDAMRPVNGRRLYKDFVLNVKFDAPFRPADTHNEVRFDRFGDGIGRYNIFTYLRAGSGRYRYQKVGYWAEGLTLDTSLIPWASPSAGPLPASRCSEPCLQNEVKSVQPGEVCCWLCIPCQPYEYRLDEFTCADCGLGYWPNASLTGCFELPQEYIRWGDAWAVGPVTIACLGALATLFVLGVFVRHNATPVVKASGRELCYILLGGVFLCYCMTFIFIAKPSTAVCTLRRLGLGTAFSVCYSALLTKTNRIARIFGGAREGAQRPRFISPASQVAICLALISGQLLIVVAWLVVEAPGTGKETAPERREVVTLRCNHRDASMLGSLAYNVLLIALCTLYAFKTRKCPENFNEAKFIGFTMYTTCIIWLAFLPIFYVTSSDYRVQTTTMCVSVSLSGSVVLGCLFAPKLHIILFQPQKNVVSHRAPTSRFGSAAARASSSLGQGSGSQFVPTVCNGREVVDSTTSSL
Metabotropic glutamate receptor 3, sequence (Q14832 whole entry): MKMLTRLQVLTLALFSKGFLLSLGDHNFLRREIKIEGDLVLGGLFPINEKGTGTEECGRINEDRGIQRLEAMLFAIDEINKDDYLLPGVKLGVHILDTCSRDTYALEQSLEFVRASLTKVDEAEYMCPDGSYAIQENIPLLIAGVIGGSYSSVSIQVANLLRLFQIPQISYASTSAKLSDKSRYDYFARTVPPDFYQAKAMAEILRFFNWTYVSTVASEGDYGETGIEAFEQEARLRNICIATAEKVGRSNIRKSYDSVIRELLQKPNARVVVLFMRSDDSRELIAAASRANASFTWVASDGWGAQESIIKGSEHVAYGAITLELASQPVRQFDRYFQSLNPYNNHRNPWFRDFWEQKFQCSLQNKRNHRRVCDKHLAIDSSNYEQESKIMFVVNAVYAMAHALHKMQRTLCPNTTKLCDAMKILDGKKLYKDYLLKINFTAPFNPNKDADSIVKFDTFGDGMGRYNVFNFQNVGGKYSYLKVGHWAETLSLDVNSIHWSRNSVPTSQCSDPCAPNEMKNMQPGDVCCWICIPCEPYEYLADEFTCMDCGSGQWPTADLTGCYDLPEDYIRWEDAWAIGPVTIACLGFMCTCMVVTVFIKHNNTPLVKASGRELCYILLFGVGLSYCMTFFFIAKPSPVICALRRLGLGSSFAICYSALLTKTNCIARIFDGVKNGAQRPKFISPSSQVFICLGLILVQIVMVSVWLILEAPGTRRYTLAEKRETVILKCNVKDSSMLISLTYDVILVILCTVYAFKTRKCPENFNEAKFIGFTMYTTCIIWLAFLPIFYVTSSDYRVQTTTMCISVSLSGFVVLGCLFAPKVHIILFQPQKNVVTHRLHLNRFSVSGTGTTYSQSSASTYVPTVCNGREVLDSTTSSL

In the case of `Cc1cccc(C#Cc2cncnc2)c1`, the IC50 [1] is reported as 0.0075 µM.

With `COc1ccc(CN2C(=O)C(=O)c3cc(OC(F)(F)F)ccc32)cc1` the Emax [2] was 91%.

Work on `Cc1ccc(C(=O)c2c(N)sc3c2CCCC3)cc1` yielded a pKb [3] of 5.1.

`Nc1scc(-c2cccc(C(F)(F)F)c2)c1C(=O)c1ccccc1` showed a pKb [3] of 6.37.

For `CCOC(=O)c1nn(-c2cccc(Cl)c2)c(=O)c2c(N)scc12`, the pKb [3] was 8.3.

For `Nc1sc2c(c1C(=O)c1ccccc1)CCCCCC2`, the pKb [3] was 5.08.

With `O=C(Nc1ccccn1)[C@]12C[C@H]1/C(=N\O)c1ccccc1O2` the EC50 [4] was greater than 30 µM, the Emax [5] was 121% and the EC50 [6] was greater than 30 µM. The EC50 [7] was greater than 30 µM, the EC50 [8] was greater than 30 µM and the EC50 [9] was greater than 30 µM. For the same compound, the EC50 [10] was greater than 30 µM and the EC50 [11] was greater than 30 µM.

Work on `CNc1ncc(C#Cc2ccccc2)cn1` yielded an Emax [12] of 128%.

In the case of `Nc1sc(-c2ccccc2)cc1C(=O)c1ccccc1`, the pKb [3] is reported as 6.36.

Work on `Nc1sc(-c2cncnc2)cc1C(=O)c1ccccc1` yielded a pKb [3] of 5.82.

Compound `Nc1sc2c(c1C(=O)c1ccc(Cl)cc1)CCCC2` has a pKb [3] of 5.49.

For `C(#Cc1cncnc1)c1ccccc1`, the IC50 [1] was 0.486 µM.

`Nc1sc2c(c1C(=O)c1ccc(Cl)cc1)CC1C=CC=CC1C2` (stereo unspecified) was tested, and the pKb [3] was 6.01.

Work on `Nc1sc2c(c1C(=O)c1ccc(Cl)cc1)CC1C=CC(C(F)(F)F)=CC1C2` (stereo unspecified) yielded a pKb [3] of 5.11.

Work on `O=C(O)c1cn(Cc2ccc(-c3ccccc3)cc2)c2c(F)cccc2c1=O` yielded an EC50 [13] of 0.38 µM.

Work on `Nc1sc(-c2cncnc2)c2c1C(=O)c1ccccc1-2` yielded a pKb [3] of 6.67.

With `Nc1scc(-c2cc(C(F)(F)F)cc(C(F)(F)F)c2)c1C(=O)c1ccc(Cl)cc1` the pKb [3] was 5.46.

Work on `Nc1sc2c(c1C(=O)c1ccc(Cl)cc1)CC1C=C(C(F)(F)F)C=CC1C2` (stereo unspecified) yielded a pKb [3] of 5.12.

In the case of `Nc1scc(-c2ccccc2F)c1C(=O)c1ccc(Cl)cc1`, the pKb [3] is reported as 5.1.

`O=C(O)c1cn(Cc2ccc(-c3ccccc3)cc2)c2cccc(F)c2c1=O` was tested, and the EC50 [13] was 0.084 µM.

With `Cc1ccc(C#Cc2cncnc2)cc1` the EC50 [7] was 3.3 µM and the Emax [12] was 99%.

With `CCOC(=O)c1c(N)sc2c1CCN(C(=O)OC(C)(C)C)CC2` the pKb [3] was 6.07.

Compound `O=C1C(=O)N(Cc2ccc(Oc3ccccc3)cc2)c2ccc(OC(F)(F)F)cc21` has an Emax [2] of 75%.

In the case of `O=C1C(=O)N(Cc2ccc(Br)cc2)c2ccccc21`, the Emax [14] is reported as 66%, the Emax [15] is reported as 82% and the Emax [2] is reported as 74%.

With `Nc1scc(-c2cccc(C(F)(F)F)c2)c1C(=O)c1ccc(Cl)cc1` the pKb [3] was 5.74.

With `O=C(O)c1cn(Cc2ccc(-c3ccccc3)cc2)c2c(F)ccc(F)c2c1=O` the EC50 [13] was 0.27 µM.

For `Nc1scc(-c2cc(C(F)(F)F)cc(C(F)(F)F)c2)c1C(=O)c1ccccc1`, the pKb [3] was 5.22.

With `Cn1cc(-c2ccc(Cn3cc(C(=O)O)c(=O)c4c(F)cccc43)c(F)c2)cn1` the EC50 [13] was 0.041 µM.

With `Nc1scc(-c2cccc(F)c2)c1C(=O)c1ccc(Cl)cc1` the pKb [3] was 5.88.

With `Cn1cc(-c2ccc(CN3C(=O)C(=O)c4ccccc43)c(F)c2)cn1` the Emax [15] was 65%.

In the case of `CC(C)(C)OC(=O)N1CCc2sc(N)c(C(=O)c3ccc(Cl)cc3)c2CC1`, the pKb [3] is reported as 5.23.
